Measurements published in the NIST ThermoML archive (doi:10.1016/j.jct.2012.03.022).
± gives the expanded uncertainty stated by the source.

Details: Liquid, Closed cell (Static) method

CC(F)F [1,1-difluoroethane]
vapor or sublimation pressure (258.15 K): 148.6 ± 1 kPa | vapor or sublimation pressure (268.15 K): 219.4 ± 1.1 kPa | vapor or sublimation pressure (278.15 K): 314.1 ± 1.1 kPa | vapor or sublimation pressure (288.15 K): 437.8 ± 1.2 kPa
